Results reported in a melting point compilation (Tetko et al.).

SMILES	melting point [°C]
Cc1noc2nc3c(cc12)CCOC3=O	224 to 226
CS(=O)c1nnc[nH]1 (configuration not stated)	119 to 121
CC(C)(C)C(Br)C(N)=O (configuration not stated)	91 to 93
Nc1ccc(-c2nc3ccc(N)cc3[nH]2)cc1	234 to 236
Nc1cc(Cl)ccc1C(=O)N1CCCC1	118 to 120
Oc1ccnc2cc(F)c(F)cc12	298 to 300
CCCC(=O)N1CCCCC1C(=O)O (configuration not stated)	63 to 65
Cc1ccc(C)c2sc(N)nc12	151 to 153
Nc1ccc(-c2cncnc2)cc1	208 to 210
CC(C)CC1NC(C(=O)O)CS1 (configuration not stated)	159 to 161
CCn1c(S)nnc1C1CC1	< 17
Cn1cc(C(N)=O)c(C(F)F)n1	214 to 216
Nc1nnc(C=Cc2ccco2)s1	218 to 220
Cc1sc2ncn(CCC(=O)O)c(=O)c2c1C	194 to 196
CSc1ccc(C(C)=O)cc1F	71 to 73
CCC(NC(=O)OC(C)(C)C)C(=O)O (configuration not stated)	88 to 90
N#Cc1cc(Br)ccc1N=C=O	97 to 99
Cc1cc(F)c(C(=O)CCl)cc1F	93 to 95
Cc1c(C)n(CCc2ccccn2)c2[nH]cnc(=N)c12	132 to 134
C#Cc1cccc(NCC(=O)N2CCOCC2)c1	185 to 187
NC(=S)C1CCCC1	84 to 86
CCCCc1ccc(NC2=NCCCS2)cc1	70 to 72

SMILES	melting point [°C]
O=C(O)CCc1cc(Br)ccc1F	84 to 86
Cc1ccc2c(Cl)cc(Cl)c(OCC(=O)O)c2n1	209 to 211
NC(=S)CC1CC1	68 to 70
COc1cc(C=O)c([N+](=O)[O-])cc1O	207 to 209
Cn1c(-c2ccccn2)cccc1=O	66 to 68
O=C(O)c1cncc(N2CCOCC2)c1	258 to 260
O=C(O)CSCc1nc2sc3c(c2c(=O)[nH]1)CCC3	198 to 200
N#CCc1cc(Br)cnc1O	209 to 211
Nc1cc(-c2ccc(Cl)cc2)nn1-c1ccccc1	191 to 193
OC(c1ccccc1)c1cccc(Cl)c1Cl (configuration not stated)	79 to 81
O=C(O)c1ccn(-c2ccccc2Cl)n1	187 to 189
CCc1noc(-c2cc(Cl)ccc2N)n1	107 to 109
Cn1c(N)c(C(=O)CC#N)c(=O)n(C)c1=O	260 to 262
CCOc1ccc(C(C)(C)C(=O)O)cc1OCC	74 to 76
ClCc1csc(COc2ccccc2)n1	49 to 51
Nc1nc(Cl)c(C=O)c(N2CCCC2)n1	176 to 178
O=C(O)c1cc2ccc(F)cc2s1	220 to 222
Nc1ccc2[nH]c(-c3ccc(F)cc3)nc2c1	118 to 120
O=C(O)c1noc2c1CCCC2	124 to 126
FC(F)(F)c1ccccc1-c1nnc(CCl)o1	35 to 37
O=c1oc2ccccc2n1CCO	104 to 106
Cc1cc(C(C)(C)C)cc(C)c1CCNC(=O)CCl	114 to 116

SMILES	melting point [°C]
CCNc1ccc(Br)cn1	67 to 69
Clc1nnc(-c2ccccc2)n1C1CC1	159 to 161
O=C(O)c1c(O)cc(F)cc1F	182 to 184
COc1ccc(NC(=S)NN)cn1	154 to 156
N#Cc1cnc2c(F)ccc(F)c2c1Cl	172 to 174
N#Cc1c[nH]c(C(=O)C(Cl)(Cl)Cl)c1	134 to 136
Cc1ccc(-n2cc(C=O)c(C(C)(C)C)n2)cc1	79 to 81
Cc1cc(=O)[nH]c(-c2ccnc(Cl)c2)n1	269 to 271
COc1ccc(C(C)=O)cc1CSc1nnnn1C	64 to 66
COc1cc(CCc2cc(N)n[nH]2)cc(OC)c1	107 to 109
CC(C)(C(=O)O)c1cccs1	78 to 80
O=C(O)c1csc(-c2cnn(-c3ccccc3)c2)n1	202 to 204
O=C(Nc1ccc(C(=O)O)c(O)c1)c1cc(Cl)cc(Cl)c1	268 to 270
CCS(=O)(=O)N1CCCC(C(=O)O)C1 (configuration not stated)	59 to 61
CCc1c(C)[nH]c2ccc(Oc3ccccc3)cc2c1=O	266 to 268
O=C(O)c1cccc(-n2nccc2C(F)(F)F)c1	158 to 160
CN(C(=O)c1ccc(N)cc1Cl)C1CCCCC1	172 to 174
NC1(c2nn[nH]n2)CCCC1	229 to 231
NC(=O)c1cccnc1N1CCNCC1	145 to 147
CCC(C)c1ccc(-n2c(S)nc3cc(Cl)ccc3c2=O)cc1 (configuration not stated)	242 to 244
Cc1cc(C)c2c(Cl)c(C(=O)O)sc2c1	286 to 288
O=C(c1ccc(F)cc1)c1ccc(C(F)(F)F)cc1	100 to 102

SMILES	melting point [°C]
O=C(O)c1cnc2ccc(Br)cc2c1O	274 to 276
Cc1nn(C)c2c1N(C(=O)OC(C)(C)C)CC(C)N2 (configuration not stated)	129 to 131
Cc1ccc(C)n1CC(=O)O	99 to 101
O=c1[nH]c(S)nc2c1cnn2-c1ccccc1	110 to 113
CC(=O)c1ccc(Cl)c(Cl)c1O	108 to 110
COc1cccc(C2CC(=O)CC(=O)C2)c1	131 to 133
Cc1noc2nc(-c3cc(F)ccc3F)cc(C(=O)O)c12	237 to 239
Cc1cc(N2CCNC(=O)C2)ccc1CN	154 to 156
COc1ccccc1N(CCC#N)C(=O)C(C)Cl (configuration not stated)	71 to 73
CC(C)c1cc(N)on1	33 to 35
Cn1c(S)nnc1-c1ccco1	179 to 181
O=C(O)c1cc2c(F)cc(Br)cc2[nH]1	230 to 232
Cc1nc(N)sc1Cc1ccccc1Cl	126 to 128
Cc1cc(N)n(-c2cc(C(F)(F)F)ccc2Cl)n1	159 to 161
Nc1ccc2c(c1)CCN2C(=O)c1cccnc1	181 to 183
COc1cccc(C(C=O)C=O)c1	62 to 64
OCCNc1ncccn1	76 to 78
Sc1nnc2sc3ccccc3n12	252 to 254
O=C(CCl)N1CCOC2CCCCC21 (configuration not stated)	67 to 69
Cc1nnc(CO)n1C	155 to 157
O=C(O)CC1CCCCO1 (configuration not stated)	49 to 51

Further lines, results first:

melting point [°C]	SMILES
189 to 191	Cn1nc(CC(=O)O)c2ccccc2c1=O
83 to 85	Nc1ncc(Cc2ccc(Cl)c(Cl)c2)s1
190 to 192	O=C(NCc1ccc(C(=O)O)cc1)OCc1ccccc1
84 to 86	Cc1ccc(CCC(=O)O)cc1Cl
126 to 128	CN1C(=O)CC(C(=O)O)C1c1ccccc1 (configuration not stated)
80 to 82	O=C(O)CNS(=O)(=O)C=Cc1ccccc1
156 to 158	O=C(O)C1CCN(S(=O)(=O)c2ccccc2)CC1
93 to 95	O=C(CS)Nc1ccccn1
169 to 171	O=C(O)c1nnn(-c2ccc(Br)cc2)c1C(F)(F)F
199 to 201	NNC(=O)c1ccc(S(=O)(=O)N2CCCC2)cc1
153 to 157	O=S(=O)(c1ccc(Cl)nc1)N1CCC(Cc2ccccc2)CC1
222 to 224	Cc1cc(=O)[nH]c(-c2ccc(N)cc2)n1
53 to 55	COC(=O)c1nc(Cl)ccc1Cl
169 to 171	CC(NS(=O)(=O)c1cnn(C)c1)C(=O)O (configuration not stated)
210 to 212	O=C(O)C1=Nc2cccc3cccc(c23)N1
144 to 146	O=C(O)c1cccc(-c2ccoc2)c1
199 to 201	CCNS(=O)(=O)c1cccc(C(=O)O)c1
148 to 150	CN(C)c1ccc(C(=N)N)c(Cl)c1
131 to 133	Cc1noc(N)c1S(N)(=O)=O
175 to 177	NC(=O)NCc1ccc(S(N)(=O)=O)cc1
142 to 144	O=C(CCl)NCc1ccc(C(=O)N2CCOCC2)cc1
54 to 56	Cc1cc(Cl)ccc1S(=O)(=O)Cl
239 to 241	CCN1CCN(S(=O)(=O)c2ccc(CCC(=O)O)cc2)CC1
183 to 185	CC(=O)CC(=O)Nc1ccc(NC(=O)C2CC2)cc1
154 to 156	CS(=O)(=O)c1ccccc1CC(=O)O
303 to 305	O=C(Nc1nncs1)c1ccc(O)cc1
160 to 162	NC(=O)c1nnn(-c2ccccc2)c1N
65 to 68	O=C(NCCO)c1cccc(S(=O)(=O)N2CCCCC2)c1

melting point [°C]	SMILES
54 to 56	Fc1ccc(-c2nc(CCl)cs2)cc1
88 to 90	CCCOc1ccc(C(=O)NN)cc1
196 to 198	CC(=O)N(C)c1ccccc1C(=O)O
155 to 157	COc1cc(C=O)ccc1OCC(N)=O
82 to 84	O=C(O)CCNC(=O)c1ccccc1Cl
164 to 166	O=C(O)c1ccc([N+](=O)[O-])cc1Br
185 to 187	COc1ccc(-c2nnc(N)s2)cc1
205 to 207	O=[N+]([O-])c1ccc(-c2cn[nH]c2)cc1
187 to 189	CC1(c2ccc(N)cc2)NC(=O)NC1=O (configuration not stated)
187 to 189	O=S(=O)(Cl)c1c[nH]c2ncccc12
160 to 162	NC(=O)N1CCc2ccccc21
86 to 88	CC(O)(c1ccc([N+](=O)[O-])cc1)C(F)(F)F (configuration not stated)
181 to 183	COc1ccc(-c2cc(C(=O)NN)c3ccccc3n2)cc1OC
144 to 148	O=C(O)c1ccc(F)nc1
180 to 182	CC(C)(C)c1ccc(C(=O)N2CSCC2C(=O)O)cc1 (configuration not stated)
240 to 242	CC1(c2ccc(O)cc2)NC(=O)NC1=O (configuration not stated)
90 to 92	O=S(=O)(Cl)c1ccc(Cl)c2ccccc12
161 to 163	NC(=O)CCC(C(=O)O)N1C(=O)c2ccccc2C1=O (configuration not stated)
87 to 89	O=[N+]([O-])C=Cc1cccc2ccccc12
237 to 239	NC(=NO)c1ccc(Cn2cnc3ccccc32)cc1
142 to 144	NCc1cccc(CS(N)(=O)=O)c1
102 to 104	O=C(O)c1ccc2c(c1)ncn2Cc1ccccc1
121 to 123	Nc1cccc(NC(=O)N2CCCCCC2)c1
266 to 268	O=C(O)c1ccc(S(=O)(=O)Nc2ccccc2F)cc1
221 to 223	COc1cc(C(=O)O)ccc1OCc1ccc(Cl)cc1
209 to 211	CN1CC(C(=O)O)Cc2ccccc21 (configuration not stated)
227 to 229	NNC(=O)c1cc(N)cc([N+](=O)[O-])c1
